Data: US20220354911A1, “TREATMENT OF TUMORS BY A COMBINATION OF AN ONCOLYTIC ADENOVIRUS, A CDK4/6 INHIBITOR AND A FURTHER THERAPEUTICALLY ACTIVE AGENT” (KLINIKUM RECHTS DER ISAR DER TECHNISCHEN UNIVERSITÄT MÜNCHEN, priority 2019, published 2022)

Tests used:
T24 cells = experiment: Potency assay (SRB), XVir-N-31, Palbociclib and JQ-1; format: cell-based, human
Method: 5000 T24 cells were seeded in 12 well plates and grown in 1 ml RPMI-Medium containing 10% FCS. Next day cells were treated with 500 nM Palbociclib and 300 nM JQ-1. 24 hours post treatment cells were infected with indicated MOIs of XVir-N-31 in 200 μl RPMI-Medium containing no FCS. After 1 hour 800 μl RPMI-Medium containing 10% FCS were added into each well. In addition, 500 nM Palbociclib and 300 nM JQ-1 were added to the medium. SRB-Staining took place 5 days post infection. Mock treated cells were set 100% cell survival.

XVir-N-31 = XVir-N-31 replication in UMUC-3 cells, JQ-1 priming or concurrent treatment (fiber qPCR); format: cell-based, Mastadenovirus, Type C, Serotype 5; settings: UMUC-3, 10 MOI, 100 nM or 500 nM JQ-1, 24 hours post infection
Method: 2.5×10^4 UMUC-3 cells were seeded in 12 well plates in DMEM medium. The following day the cells were treated with JQ-1 (priming) or DMEM medium. At the next morning the cells were infected with 10 MOI XVir-N-31. One hour after infection DMEM Medium containing JQ-1 was added on the cells (concurrent treatment). After each 4 and 24 hours, the cells were washed once with PBS and 200 μl of SDS DNA Lysis Buffer was added. The cells were incubated with Proteinase K for at least 1 hour before undergoing a phenol-chloroform-isoamylalcohol purification. The DNA was diluted in 1×TE buffer and the concentration of the DNA was determined using a Nanodrop. For each sample a solution of 15 ng/μl was prepared and a RT-qPCR using 75 ng of DNA and a GoTaq Master mix. Specific fiber forward and reverse primers were used and for the calculation of the Δ ct value specific Actin primers were used as well. For each sample 3 Fiber and 3 Actin values were measured. The calculation was done in excel and each 24 hours value was calculated based on its 4 hours value (initial viral entry, before replication).

UMUC-3 and RT112 = experiment: FACS cell cycle analysis, JQ-1 and Palbociclib; format: cell-based, human; settings: 100 or 300 nM JQ-1, 500 nM Palbociclib
Method: For such purpose, 5×10^4 cells UMUC-3 and RT112, respectively, were seeded in 6-well plates and 24 hours later treated with appropriate inhibitors. 1 day later, at approximately 80% confluency, cells were washed with PBS, trypsinized, washed again and fixated with icecold 80% ethanol. For cell cycle analysis, samples were incubated with the DNA-intercalating dye 7-aminoactinomycine D (7-AAD) and measured via FACS analysis. Evaluation of measured data was performed via the software FlowJo.

[1] = tested on: RB, phospho-RB, E2F-1, Hexim1; experiment: Western blot of cellular target proteins after JQ-1 and Palbociclib; format: cell-based, human
Method: 1-2×10^6 UMUC-3 or RT-112 cells were seeded in 10 cm plates in DMEM medium and 24 hours post seeding treated with respective small molecular inhibitors. 24 hours post treatment, lysates of total proteins were taken using an SDS-buffer. BCA Assay was applied to adjust equivalent protein concentrations. Then, protein samples were supplemented with Lämmli buffer and separated via SDS-PA gelelectrophoresis on 10% PA-Gels. Samples were blotted onto PVDF membranes using a BioRAD Wet Tank System. These membranes were blocked with TBS-Tween buffer containing 5% Skim milk powder for 1 hour at room temperature. Incubation with primary antibodies was conducted over night at 4° C. and with HRP-conjugated secondary antibodies for 1 hour at room temperature. Chemiluminescence was detected using ECL prime (Pierce) with the ChemiDoc Imaging System (BioRad). Figures were designed in Adobe® Illustrator and evaluation was performed with ImageLab.

`Cc1sc2c(c1C)C(c1ccc(Cl)cc1)=N[C@@H](CC(=O)OC(C)(C)C)c1nnc(C)n1-2` [JQ-1, thieno-triazolo-1-4-diazepine] was tested, and the “cell killing of XVir-N-31, JQ-1 monotherapy” value (T24 cells; T24, 300 nM JQ-1 alone, 10 and 20 MOI) was “did not increase cell killing”, the “cell killing capacity of XVir-N-31 in combination with Palbociclib” value (T24 cells; T24, 500 nM Palbociclib, 300 nM JQ-1, low MOIs, 5 days post infection) was “increased the cell killing capacity” and the “XVir-N-31 replication, concurrent treatment with JQ-1” value (XVir-N-31) was “crucial for dual therapy success”. For the same compound, the “XVir-N-31 replication, priming with JQ-1” value (XVir-N-31) was “no beneficial effect”, the cell cycle (UMUC-3 and RT112) was “no significant influence on the cell cycle” and the “RB, phospho-RB or E2F-1 protein level” value ([1]; UMUC-3 and RT-112, 0.2 μM and 0.5 μM, 24 hours post treatment, monotherapy or with Palbociclib) was “did not show any effects”. For the same compound, the Hexim1 ([1]; UMUC-3 and RT-112, 24 hours post treatment) was “downregulated”.
